“Also recorded” adds a separate entry of the source.
What was measured:
[1] = system: ERK1/2; experiment: Western blot of aortic root and proximal ascending aorta: ERK1/2 activation (Examples 4-5); type: in vivo, mice
Excerpt: All mice were cared for under strict compliance with the Animal Care and Use Committee of the Johns Hopkins University School of Medicine. The Fbn1^C1039G/+ and AT2KO lines were maintained n a pure C57BL/6 background (backcrossed for greater than 9 generations), allowing for valid comparisons. In order to further accommodate the potential for temporal- or background-specified variation, all comparisons were made between contemporary littermates when possible. The AT21C0 mice were obtained as a generous gift from Dr. Inagami (T. Ichiki et al., Nature 377, 748 (1995)). The Agtr2 gene resides on the X chromosome and therefore we used either male mice carrying the mutated allele (who are hemizygous) or homozygous females, both of which have been previously shown to be functionally null for the AT2 receptor (T. Ichiki et al., Nature 377, 748 (1995)). Mice were sacrificed with an inhalation overdose of halothane (Sigma-Aldrich, St. Louis). Mice underwent immediate laparotomy, descending abdominal aortic transection, and PBS (pH 7.4) was infused through the right and left ventricles to flush out the blood. Mice that were analyzed for Western Blot analysis had their proximal ascending aortas (root to right brachiocephalic trunk) immediately dissected out, flash frozen in liquid nitrogen and stored at −80d until further processing. Mice that were analyzed for aortic histology had latex injected under low pressure into the left ventricular apex until it was visible in the descending abdominal aorta. Mice that were analyzed for lung histology had their trachea intubated with a 20-gauge blunted needle, and 0.5% agar was infused under a low and constant pressure to gradually inflate the lungs. […]
Mouse aortic root and ascending aortas (aortic root excluding the aortic valve to origin of right brachiocephalic trunk) were harvested, snap-frozen in liquid nitrogen and stored at −80° C. until processed. […] Equal protein loading of samples was determined by a protein assay (BioRad, CA), and confirmed by probing with antibodies against β-Actin or GAPDH (Sigma, Mo.). […]

[2] = system: ERK1/2; experiment: Western blot of proximal ascending aorta: ERK1/2 activation (Examples 6-8); type: in vivo, mice; settings: Fbn1^C1039G/+ mice, compared with placebo-treated littermates, FIG. 16B
Excerpt: All mice were cared for under strict compliance with the Animal Care and Use Committee of the Johns Hopkins University School of Medicine. The Smad4 haploinsufficient mice were a generous gift from Dr. Chuxia Deng (NIH/NIDDK, Bethesda). The Fbn1^C1039G/+ line was maintained on a C57BL/6 background, allowing for valid comparisons. In order to further accommodate the potential for temporal- or background-specific variation in genetic or pharmacological manipulation experiments, all comparisons were made between contemporary littermates. Mice were checked daily for death and all mice found dead were immediately necropsied to assess for evidence of aortic dissection. Mice were killed with an inhalation overdose of halothane (Sigma-Aldrich, St. Louis). Mice underwent immediate laparotomy, descending abdominal aortic transection, and PBS (pH 7.4) infusion through the left ventricle to flush out the blood. For Western blot analysis, the proximal ascending aorta (root to right brachiocephalic trunk) was removed, flash frozen in liquid nitrogen and stored at −80° C. Following PBS infusion, mice analyzed for aortic histology had latex injected under low pressure into the left ventricular apex until it was visible in the descending abdominal aorta. The mice were then fixed for 24 hours in 10% buffered formalin, after which the heart and aorta were removed and stored in 70% ethanol.
Mouse monoclonal TGFβNAb (1d11; R&D Systems, Minneapolis) was reconstituted in PBS and administered via intraperitoneal injection 3 times a week at a dose of 5 mg/kg. Treatment was initiated at 1 month of age and continued for 2 months. IgG (Zymed Laboratories Inc, San Francisco) was reconstituted in PBS, and administered at a dose of 10 mg/kg as a control. […]
Protein was extracted using the reagents and protocol from a Total Protein Extraction Kit, in conjunction with a Protein Phosphatase Inhibitor Cocktail (Millipore, MA). […] Equal protein loading of samples was determined by a protein assay (BioRad, CA) and confirmed by probing with antibodies against β-Actin or GAPDH (Sigma, Mo.). […]

Structure (SMILES): CCCCc1nc(Cl)c(CO)n1Cc1ccc(-c2ccccc2-c2nn[nH]n2)cc1 [losartan]
- ERK1/2 activation ([1]; AT2KO:Fbn1^C1039G/+ mice, FIG. 10C and 14): ability to inhibit ERK1/2 activation is lost; also recorded: reduced ability to lower ERK1/2 activation; also recorded: loses its ability to decrease ERK1/2 activation
- ERK1/2 activation ([1]; Fbn1^C1039G/+ mice, FIG. 10B): reduced it to WT levels; also recorded: reduced ERK1/2 activation to levels indistinguishable from WT littermates
- ERK1/2 activation [2]: significant reduction in ERK1/2 activation

From patent US20140148498A1, “METHODS AND COMPOSITIONS FOR THE TREATMENT OF MARFAN SYNDROME AND ASSOCIATED DISORDERS” (THE JOHNS HOPKINS UNIVERSITY, priority 2011, published 2014)
